Values of other authors in patent US4039549A, “Olefinic derivatives of amino acids” (Merrell Toraude et Compagnie, priority 1976, dated 1977).

How the values were obtained:
[1] = test system: γ-aminobutyric acid transaminase; conditions: literature
[2] = test system: brain levels of γ-aminobutyric acid; conditions: reversible effect; literature

| Compound | inhibition of γ-aminobutyric acid transaminase (mode) [1] | duration of effect (elevation of brain γ-aminobutyric acid levels) [2] |
| --- | --- | --- |
| NCC#CC(=O)O [4-aminotetrolic acid] | competitive reversible inhibitor | – |
| CCCC(CCC)C(=O)O [n-dipropylacetate] | competitively inhibiting | about 2 hours |
